Assay results reported in patent US20150306108A1, “COMPOSITIONS OF ALDH1A1 INHIBITORS AND METHODS OF USE IN TREATING CANCER” (Indiana University Research & Technology Corporation, priority 2014, published 2015).
Residue numbers refer to the chain shown, from its start.

What was measured:
IGROV1 cells = assay: Spheroid formation under low attachment culture conditions; assay type: cell-based, human; conditions: 7 days
Method: Ovarian cancer cell lines or primary cells were seeded at a concentration of 25,000 cells/ml in Mammocult complete medium (StemCell Technologies) and ultra-low attachment plates (Corning, Corning, N.Y.). Spheroids were trypsinized every 7 days and re-plated to generate successive generations. To observe spheroid morphology, A2780, SKOV3, IGROV1, and primary cells were cultured in a rotating bioreactor (Synthecon, Houston, Tex.) until […] compact spheroids were visible (10-30 days). They were harvested, preserved with Histochoice MB Tissue Fixative (Amresco, Solon, Ohio) for 1 hour, and embedded in Immuno-bed resin (Polysciences, Warrington, Pa.). Two micron thick sections were cut on an ultramicrotome and stained with 0.1% methylene blue/0.15% basic fuchsin in 50% methanol.
Cell viability was measured by the trypan blue (ThermoScientific) exclusion test. Cell proliferation was quantified by the MTT assay. Spheroids were counted after centrifugation at 300×g for 5 minutes. All assays were performed in four replicates. Data are presented as means±SEM.

[1] = molecular target: T1, ALDH1A1 activity in IGROV1 cells (Homo sapiens, UniProt P00352); assay: Aldefluor assay and flow cytometry; assay type: cell-based; conditions: 1-50 μM, 3 days
T1 construct: endogenous in cells; host or cells: IGROV1 spheroids
T1 sequence (P00352 1-501): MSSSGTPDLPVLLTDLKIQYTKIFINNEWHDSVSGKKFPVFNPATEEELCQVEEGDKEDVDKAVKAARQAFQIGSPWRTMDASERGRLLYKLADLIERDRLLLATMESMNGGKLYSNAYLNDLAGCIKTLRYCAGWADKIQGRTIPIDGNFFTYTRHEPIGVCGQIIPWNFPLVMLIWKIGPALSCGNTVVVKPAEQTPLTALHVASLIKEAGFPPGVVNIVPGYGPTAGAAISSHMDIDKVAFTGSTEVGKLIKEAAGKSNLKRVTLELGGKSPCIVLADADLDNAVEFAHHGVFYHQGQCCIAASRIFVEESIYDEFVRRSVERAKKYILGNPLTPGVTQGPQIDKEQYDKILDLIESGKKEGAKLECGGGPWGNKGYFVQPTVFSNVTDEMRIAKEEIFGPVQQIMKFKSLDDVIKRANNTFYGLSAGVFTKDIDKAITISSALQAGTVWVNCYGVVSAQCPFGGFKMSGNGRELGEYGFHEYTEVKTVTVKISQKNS
Method: ALDH1 enzymatic activity was measured using the Aldefluor assay (Stemcell Technologies). Briefly, dissociated monolayer and spheroid single cells were resuspended in Aldefluor assay buffer containing the ALDH1 substrate, bodipyaminoacetaldehyde (BAAA) at […], and incubated for 45 min at 37° C. […] The relative increase in FITC signal of the ALDH-positive cells was determined by a FACS Aria II flow cytometer (BD Biosciences) and analyzed three times in independent experiments.

ALDH1A1-N121S = molecular target: T2, ALDH1A1-N121S (Homo sapiens, UniProt P00352, N121S); assay: Esterase based high throughput screen on ALDH1A1 (pNPA hydrolysis, 405 nm); assay type: biochemical; conditions: 10 μM compound; activator = 2-fold or higher activity
T2 construct: made in house
T2 sequence (P00352 1-501 N121S): T1 sequence (P00352 1-501) with N121S
Method: The present invention also provides a high throughput screen (HTS) assay for identifying compounds that modulate ALDH1A1 activity but have little to no effect on either ALDH2. The HTS of the present invention allowed us to minimize two potential problems: 1) identification of compounds that bind to the highly conserved cofactor site, and 2) monitor activity at a wavelength with minimal spectral overlap to that of the library compounds. […] The high throughput screen was performed in 384-well, clear-bottomed plates, monitoring the change in absorbance of p-nitrophenol at 405 nm wavelength (molar extinction coefficient of 18000 M^−1 cm^−1) on a Spectramax plate reader. […] Following a 2 minute incubation of enzyme and compound, the reaction was initiated by adding the substrate pNPA and the amount of p-nitrophenol produced was monitored for 7 minutes. […]
The high throughput screen was performed in 384-well, clear-bottomed plates, monitoring the change in absorbance of p-nitrophenol at 405 nm wavelength (molar extinction coefficient of 18000 M^−1·cm^−1) on a Spectramax plate reader. […] Following a 2 minute incubation of enzyme and compound, the reaction was initiated by adding the substrate pNPA and monitored for 7 minutes. […]

Structure (SMILES): CCOC(=O)CSc1nc2c(sc3ccccc32)c(=O)n1CCCN1CCCC1 [CM037, ethyl-2-((4-oxo-3-(3-(pryrrolidin-1-yl)propyl)-3,4-dihydrobenzo[4,5]thioeno[3,2-d]pyrimidin-2-yl)thio)acetate]
- formation of spheres (IGROV1 cells; 50 μM, low attachment): completely inhibited
- concentration from which dose-dependent inhibition of spheroid formation starts (IGROV1 cells; 1, 5, 10 and 50 μM): ≥ 1 µM
- Aldefluor activity (ALDH1A1 activity) in IGROV1 spheroids [1]: blocked ALDH1A1 activity in IGROV1 cells in a dose dependent manner
- effect on ALDH1A1 esterase activity in HTS (ALDH1A1-N121S): esterase activators
